Results on 28 compounds are retold here after patent US9370515B2, “Mixed lineage kinase inhibitors and method of treatments” (CALIFIA BIO, INC., priority 2013, dated 2016).

Each structure is given as a SMILES string.

MLK-3, sequence (Q16584 whole entry): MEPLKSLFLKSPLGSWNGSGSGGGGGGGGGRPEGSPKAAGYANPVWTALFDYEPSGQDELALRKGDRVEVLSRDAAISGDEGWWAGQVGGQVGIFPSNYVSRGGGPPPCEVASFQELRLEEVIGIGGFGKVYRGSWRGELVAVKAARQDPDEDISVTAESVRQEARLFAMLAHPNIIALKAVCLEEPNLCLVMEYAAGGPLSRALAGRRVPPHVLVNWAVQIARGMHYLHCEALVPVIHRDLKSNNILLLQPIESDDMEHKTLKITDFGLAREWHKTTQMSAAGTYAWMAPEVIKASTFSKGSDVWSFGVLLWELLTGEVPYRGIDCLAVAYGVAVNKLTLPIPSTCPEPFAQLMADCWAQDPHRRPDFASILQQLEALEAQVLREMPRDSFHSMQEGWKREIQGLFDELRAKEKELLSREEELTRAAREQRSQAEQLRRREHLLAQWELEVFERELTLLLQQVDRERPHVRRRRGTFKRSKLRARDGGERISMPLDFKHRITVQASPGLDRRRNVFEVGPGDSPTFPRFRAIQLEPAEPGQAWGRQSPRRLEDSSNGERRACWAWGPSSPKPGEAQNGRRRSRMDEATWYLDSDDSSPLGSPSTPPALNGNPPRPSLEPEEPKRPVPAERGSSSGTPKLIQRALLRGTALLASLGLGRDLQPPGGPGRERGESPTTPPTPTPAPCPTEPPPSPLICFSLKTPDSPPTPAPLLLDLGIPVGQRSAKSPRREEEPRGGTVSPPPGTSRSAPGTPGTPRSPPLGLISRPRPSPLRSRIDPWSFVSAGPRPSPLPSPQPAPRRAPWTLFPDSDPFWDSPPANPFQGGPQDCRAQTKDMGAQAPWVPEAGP

The assay addresses MLK-3 (Homo sapiens, UniProt Q16584). The assay is described as follows: Biochemical assay for the inhibition of kinase activity for MLK-3 (33P-ATP, HOTSPOT filter binding). Conditions: activated MLK-3 20 nM, ATP 50 μM, myelin basic protein 20 μM, 20 minutes room temperature. As to the method: Biochemical Assay for the Inhibition of Kinase Activity for MLK-3: Myelin basic protein (20 μM final concentration) is dissolved in 20 mM Hepes (pH 7.5) containing […], […], 0.02% Brij35, 0.02 mg/ml BSA, 0.1 μM Na3VO4, 2 mM DTT, and 1% DMSO. Activated MLK-3 is added and mixed (20 nM final concentration), and inhibitors are added in DMSO. ^33P-ATP (specific activity 500 μCi/μL) is delivered into the reaction mixture to initiate the reaction (ATP concentration is 50 μM) and the mixture is incubated at room temperature for 20 minutes. % Activity is determined using a proprietary HOTSPOT™ microfluidic filter binding technology. See, Expert Opin. Drug Discov. 2008 June; 3(6): 607-621.
In the case of `O[C@H]1CCC[C@@H](Nc2ccc3ncc(-c4cc5ccccc5s4)n3n2)C1` (relative stereo) [Compound 122, cis-3-(3-(benzo[b]thiophen-2-yl)imidazo[1,2-b]pyridazin-6-ylamino)cyclohexanol], the IC50 was 100 to 500 nM. Next, `COc1cc2cc(-c3cnc4ccc(NC5CCC[C@H](O)C5)nn34)sc2cc1OC` (stereo in doubt) [Compound 174, 3-(3-(5,6-dimethoxybenzo[b]thiophen-2-yl)imidazo[1,2-b]pyridazin-6-ylamino)cyclohexanol]: less than 100 nM; `COc1ccc2[nH]c(-c3cnc4ccc(Nc5ccc(OC)c(OC)c5)nn34)cc2c1` [Compound 3, 3-(5-methoxy-1H-indol-2-yl)-N-(3,4-dimethoxyphenyl)imidazo[1,2-b]pyridazin-6-amine]: 100 to 500 nM.

On to `COc1ccc2cc(-c3cnc4ccc(Nc5ccc(OC)c(OC)c5)nn34)[nH]c2c1` [Compound 4, 3-(6-methoxy-1H-indol-2-yl)-N-(3,4-dimethoxyphenyl)imidazo[1,2-b]pyridazin-6-amine], for which the 50% inhibitory concentration (IC50) was in the range of 100 to 500 nM.

`COc1ccc(Nc2ccc3ncc(-c4cc5cccc(OC)c5[nH]4)n3n2)cc1OC` [Compound 5, 3-(7-methoxy-1H-indol-2-yl)-N-(3,4-dimethoxyphenyl)imidazo[1,2-b]pyridazin-6-amine]: the IC50 was less than 100 nM. The figure for `COc1ccc(Nc2ccc3ncc(-c4cccc(O)c4)n3n2)cc1OC` [Compound 9, 3-(6-(3,4-dimethoxyphenylamino)imidazo[1,2-b]pyridazin-3-yl)phenol] is less than 5000 nM; for `COc1ccc(Nc2ccc3ncc(-c4cc(OC)c(OC)c(OC)c4)n3n2)cc1OC` [Compound 11, 3-(3,4,5-trimethoxyphenyl)-N-(3,4-dimethoxyphenyl)imidazo[1,2-b]pyridazin-6-amine] it is less than 5000 nM; for `CN1CCN(c2cccc(Nc3ccc4ncc(-c5cc6ccccc6s5)n4n3)c2)CC1` [Compound 13, 3-(benzo[b]thiophen-2-yl)-N-(3-(4-methylpiperazin-1-yl)phenyl)imidazo[1,2-b]pyridazin-6-amine] it is less than 5000 nM. The figure for `COc1cc(Nc2ccc3ncc(-c4cc5ccccc5s4)n3n2)cc(OC)c1OC` [Compound 14, 3-(benzo[b]thiophen-2-yl)-N-(3,4,5-trimethoxyphenyl)imidazo[1,2-b]pyridazin-6-amine] is 500 to 1000 nM.

`COc1cc(Nc2ccc3ncc(-c4cc5ccccc5s4)n3n2)ccc1O` [Compound 24, 4-(3-(benzo[b]thiophen-2-yl)imidazo[1,2-b]pyridazin-6-ylamino)-2-methoxyphenol] displayed an IC50 of 100 to 500 nM. Next, `O=C(O)c1ccc(Nc2ccc3ncc(-c4cc5ccccc5s4)n3n2)cc1` [Compound 25, 4-(3-(benzo[b]thiophen-2-yl)imidazo[1,2-b]pyridazin-6-ylamino)benzoic acid]: 500 to 1000 nM.

`O=C(O)c1cccc(Nc2ccc3ncc(-c4cc5ccccc5s4)n3n2)c1` [Compound 26, 3-(3-(benzo[b]thiophen-2-yl)imidazo[1,2-b]pyridazin-6-ylamino)benzoic acid]: the half-inhibitory concentration (IC50) lay within 100 to 500 nM. The compound `COc1cc(Nc2ccc3ncc(-c4cc5ccccc5s4)n3n2)ccc1OCCCO` [Compound 27, 3-(4-(3-(benzo[b]thiophen-2-yl)imidazo[1,2-b]pyridazin-6-ylamino)-2-methoxyphenoxy)propan-1-ol] showed an IC50 of 100 to 500 nM. The figure for `COc1cc(Nc2ccc3ncc(-c4cc5ccccc5s4)n3n2)ccc1OCC1CC1` [Compound 28, 3-(benzo[b]thiophen-2-yl)-N-(4-(cyclopropylmethoxy)-3-methoxyphenyl)imidazo[1,2-b]pyridazin-6-amine] is less than 5000 nM. The figure for `COc1cc(Nc2ccc3ncc(-c4cc5ccccc5s4)n3n2)ccc1OC(C)C` [Compound 30, 3-(benzo[b]thiophen-2-yl)-N-(4-isopropoxy-3-methoxyphenyl)imidazo[1,2-b]pyridazin-6-amine] is less than 5000 nM.

Regarding `COc1ccc(Nc2ccc3ncc(-c4cc5ccccc5s4)n3n2)cc1O` [Compound 31, 5-(3-(benzo[b]thiophen-2-yl)imidazo[1,2-b]pyridazin-6-ylamino)-2-methoxyphenol], the IC50 is less than 5000 nM. The figure for `COc1cc(Nc2ccc3ncc(-c4cc5ccccc5s4)n3n2)ccn1` [Compound 34, 3-(benzo[b]thiophen-2-yl)-N-(2-methoxypyridin-4-yl)imidazo[1,2-b]pyridazin-6-amine] is less than 5000 nM; for `CN1CCN(Cc2ccc(-c3ccc4ncc(-c5cc6ccccc6s5)n4n3)cc2)CC1` [Compound 39, 3-(benzo[b]thiophen-2-yl)-6-(4-((4-methylpiperazin-1-yl)methyl)phenyl)imidazo[1,2-b]pyridazine] it is less than 5000 nM. Next, `CN1CCN(Cc2cccc(-c3ccc4ncc(-c5cc6ccccc6s5)n4n3)c2)CC1` [Compound 40, 3-(benzo[b]thiophen-2-yl)-6-(3-((4-methylpiperazin-1-yl)methyl)phenyl)imidazo[1,2-b]pyridazine]: less than 5000 nM; `O=c1cc(Nc2ccc3ncc(-c4cc5ccccc5s4)n3n2)cc[nH]1` [Compound 41, 4-(3-(benzo[b]thiophen-2-yl)imidazo[1,2-b]pyridazin-6-ylamino)pyridin-2-ol]: 500 to 1000 nM; `COc1ccc(Nc2ccc3ncc(-c4cc5ccccc5s4)n3n2)cc1C(=O)O` [Compound 43, 5-(3-(benzo[b]thiophen-2-yl)imidazo[1,2-b]pyridazin-6-ylamino)-2-methoxybenzoic acid]: 500 to 1000 nM.

Compound `O=C(O)c1cc(Nc2ccc3ncc(-c4cc5ccccc5s4)n3n2)ccc1OCCCO` [Compound 44, 5-(3-(benzo[b]thiophen-2-yl)imidazo[1,2-b]pyridazin-6-ylamino)-2-(3-hydroxypropoxy)benzoic acid] showed a half-inhibitory concentration (IC50) of 500 to 1000 nM. Next, `O=c1cccc(Nc2ccc3ncc(-c4cc5ccccc5s4)n3n2)[nH]1` [Compound 45, 6-(3-(benzo[b]thiophen-2-yl)imidazo[1,2-b]pyridazin-6-ylamino)pyridin-2-ol]: less than 5000 nM. Next, `c1cc2cc(-c3ccc4ncc(-c5ccc6[nH]ccc6c5)n4n3)ccc2[nH]1` [Compound 50, 3,6-di(1H-indol-5-yl)imidazo[1,2-b]pyridazine]: 100 to 500 nM; `COc1ccc(Nc2ccc3ncc(-c4ccc5[nH]ccc5c4)n3n2)cc1OC` [Compound 53, 3-(1H-indol-5-yl)-N-(3,4-dimethoxyphenyl)imidazo[1,2-b]pyridazin-6-amine]: 500 to 1000 nM; `COc1cccc(Nc2ccc3ncc(-c4ccc5[nH]ccc5c4)n3n2)c1` [Compound 54, 3-(1H-indol-5-yl)-N-(3-methoxyphenyl)imidazo[1,2-b]pyridazin-6-amine]: less than 5000 nM. Next, `CN1CCN(c2cccc(Nc3ccc4ncc(-c5ccc6[nH]ccc6c5)n4n3)c2)CC1` [Compound 56, 3-(1H-indol-5-yl)-N-(3-(4-methylpiperazin-1-yl)phenyl)imidazo[1,2-b]pyridazin-6-amine]: 500 to 1000 nM; `COC(=O)c1cccc(Nc2ccc3ncc(-c4ccc5[nH]ccc5c4)n3n2)c1` [Compound 61, methyl 3-(3-(1H-indol-5-yl)imidazo[1,2-b]pyridazin-6-ylamino)benzoate]: less than 5000 nM.
